According to paper PMC12737022, “Evaluations of Sex Differences in Dosimetry in Rats Following Perfluorohexanesulfonamide (PFHxSA) Oral Exposure” (Toxics, 2025):
Several values for one entry are separate records, joined by “and”; a condition that tells them apart may be missing. Equal entries are not always repeated.

How the values were obtained:
[1] = Plasma dosimetry of PFHxSA and PFHxS by targeted LC/MS/MS; assay type: in vivo, rat; conditions: for concentration at 24 h: male, Sprague Dawley (Crl:CD(SD)), rat, oral, mean ± SD, read-out: PFHxS Male Plasma Conc.
From the text: (§1) The plasma and liver samples for this investigation were provided by Mutlu et al.. The study design, including detailed descriptions of animal handling, procedures for dosing, clinical observations, termination, and collection of tissues, is reported elsewhere and is consistent with the ARRIVE guidelines. Briefly, male and female Sprague Dawley (SD) rats (Crl:CD(SD)) (n = 48/sex, 96 total) were purchased from Charles River Laboratory (Raleigh, NC, USA) and allowed to acclimate for ≥5 days before initial dosing. Rats were 8–10 weeks old at the time of exposure. PFHxSA dosing solutions in corn oil were prepared on Day 0 and used over the course of the study. Rats of both sexes (n = 5/sex, dose, and time point, plus eight vehicle controls per sex) were dosed by oral gavage (5 mL/kg body weight) once daily for five days. […] The formulation concentrations decreased from 100 mg/kg/day at half-log10 intervals until the lowest dose level, which was a full log10 interval below the next higher dose, giving eight dose levels (0.01 to 100 mg/kg/day or 0.025 µmol/kg/day to 250 µmol/kg/day) in addition to vehicle controls. Doses were administered in randomized order within ± 1 h on each day of dosing. […] Rats were euthanized 24 h after the last dose. Blood was collected via cardiac puncture with tripotassium ethylene diamine tetraacetic acid (K3EDTA) as an anti-coagulant and centrifuged to collect cell-free plasma. Liver was collected and flash-frozen in liquid nitrogen. Liver, plasma, and dosing formulation samples were frozen at the USEPA Center for Computational Toxicology and Exposure (CCTE), Durham, NC, USA. Tissue samples (plasma and liver, n = 96 each) were stored at ≤−70 °C prior to extraction; dosing formulation samples (n = 9) were stored at −20 °C.
(§2) Detailed information on solvents and standards used for targeted LC/MS/MS of PFHxSA and PFHxS can be found in SI Text S1 and SI Table S1. Plasma and liver preparations were modified from Conley et al.. Briefly, aliquots of plasma (25 µL) and liver (~10 mg) were spiked with PFOSA as an internal standard, as no isotope-labeled PFHxSA was available. Sample batches included up to 96 samples along with an MB, CCV, and LCS for QC. Commercial plasma (mixed-sex SD rat plasma) and liver (mixed-sex SD rat) were obtained from BioIVT (Westbury, NY, USA). Cold acetonitrile (ACN) with 0.1 M formic acid was used to precipitate proteins. Liver and plasma samples were prepared similarly, except that the livers were homogenized after solvent addition. Plasma samples were vortexed to mix before being chilled at −20 °C, after which samples were centrifuged at 5 °C and 10,000× g. Liver samples were chilled at −80 °C, then homogenized using an Omni International (Kennesaw, GA, USA) Bead Ruptor 24. Liver homogenates were centrifuged at 26,000× g and 5 °C. Supernatants from the extraction of both matrices were removed and stored at −20 °C until analysis. Refer to SI Text S4 for additional experimental details and information on calibration and QC parameters for quantitation of PFHxSA.
(§3) Targeted LC/MS/MS of PFHxSA was performed on a Sciex 4000 QTRAP LC/MS/MS system operated in negative ESI mode with MRM scanning. A Restek (Bellefonte, PA, USA) Raptor Polar X (100 mm × 2 mm, 2.7 µm) column was used for liquid chromatography. Isocratic elution occurred over 10 min with a 30:70 ratio of mobile phase A (10 mM ammonium formate): mobile phase B (60:40 ACN: methanol). Both mobile phases included 0.05% formic acid. The LOQs for PFHxSA were 0.100 µM in plasma and 0.351 µM in liver. Additional details of the instrument method parameters for targeted analysis of PFHxSA are provided in SI Table S5. The MRM transitions for the PFHxSA method are provided in SI Table S6. […]

[2] = Liver dosimetry of PFHxSA and PFHxS by targeted LC/MS/MS; assay type: in vivo, rat; conditions: for PFHxS Male Liver Conc. (wet weight) / PFHxS Female Liver Conc. (wet weight) / concentration at 24 h: individual rats; for PFHxS Male Liver Conc. (wet weight) / concentration at 24 h: male; for concentration at 24 h: Sprague Dawley (Crl:CD(SD)), liver, oral, read-out: PFHxS Male Liver Conc. (wet weight)
From the text: as §1, §2, §3

[3] = tested on: human hepatocytes; parameters: method as in Crizer et al. [59]; conditions: ref Crizer et al. [59]; cited from earlier work
[4] = PFHxSA 10 mg/kg/day oral 5 days
[5] = PFHxSA 30 mg/kg/day oral 5 days
[6] = PFHxSA 100 mg/kg/day oral 5 days

O=S(=O)(O)C(F)(F)C(F)(F)C(F)(F)C(F)(F)C(F)(F)C(F)(F)F [PFHxS, perfluorohexane sulfonic acid]
Male PFHxS plasma concentrations higher than female at the same dose level ([1]; across the dose range): 4–10 times
Female level of PFHxS lower than males, on average ([1]; doses of 10 mg/kg/day and up, plasma): 5.3 fold
PFHxS lower than PFHxSA in female plasma, on average ([1]; female rats, after oral PFHxSA): 5.3 fold
PFHxS plasma concentrations higher than coincident PFHxSA plasma levels ([1]; male rats, PFHxSA 30 and 100 mg/kg/day): 1.6- to 6 fold
concentration at 24 h ([1]; plasma, PFHxSA 10 mg/kg/day oral 5 days, male rats): 76.9 µM
concentration at 24 h ([1]; plasma, PFHxSA 30 mg/kg/day oral 5 days, male rats): 136 µM
concentration at 24 h ([1]; plasma, PFHxSA 100 mg/kg/day oral 5 days, male rats): 396 µM
Male PFHxS/PFHxSA concentration ratios higher than female ratios ([1]; plasma and liver): approximately 10 fold
PFHxS Male Liver Conc. (wet weight) ([2]; PFHxSA 0.3 mg/kg/day oral 5 days): 2.31 ng/mg and 3.68 µM and 0.95 µM and 2.30 µM and 0.85 µM and 1.47 ng/mg and 0.381 ng/mg and 0.921 ng/mg and 0.340 ng/mg
PFHxS Male Liver Conc. (wet weight) ([2]; PFHxSA 1 mg/kg/day oral 5 days): 2.73 ng/mg (2×) and 2.38 ng/mg and 3.34 µM and 5.56 µM and 6.81 µM (2×) and 5.95 µM and 1.34 ng/mg and 2.23 ng/mg
PFHxS Male Liver Conc. (wet weight) ([2]; PFHxSA 3 mg/kg/day oral 5 days): 4.61 ng/mg and 5.83 ng/mg and 4.92 ng/mg and 3.19 ng/mg and 11.5 µM and 14.6 µM and 12.3 µM and 7.97 µM
PFHxS Female Liver Conc. (wet weight) [2, 4]: 0.301 ng/mg and 0.776 ng/mg and 0.700 ng/mg and 1.18 ng/mg and 1.13 ng/mg and 0.753 µM and 1.94 µM and 1.75 µM and 2.96 µM and 2.81 µM
PFHxS Male Liver Conc. (wet weight) [2, 4]: 8.96 ng/mg and 6.84 ng/mg and 9.88 ng/mg and 7.36 ng/mg and 22.4 µM and 17.1 µM and 24.7 µM and 18.4 µM
PFHxS Female Liver Conc. (wet weight) [2, 5]: 1.72 ng/mg and 2.56 ng/mg and 1.26 ng/mg and 1.35 ng/mg and 2.38 ng/mg and 4.31 µM and 6.39 µM and 3.15 µM and 3.37 µM and 5.96 µM
PFHxS Male Liver Conc. (wet weight) [2, 5]: 16.3 ng/mg and 15.3 ng/mg and 15.2 ng/mg and 24.0 ng/mg and 40.7 µM and 38.2 µM and 38.3 µM and 60.1 µM
PFHxS Female Liver Conc. (wet weight) [2, 6]: 4.16 µM and 2.21 µM and 10.2 µM and 5.79 µM and 2.07 µM and 1.66 ng/mg and 0.885 ng/mg and 4.07 ng/mg and 2.32 ng/mg and 0.826 ng/mg
PFHxS Male Liver Conc. (wet weight) [2, 6]: 67.1 ng/mg and 88.3 ng/mg and 41.9 ng/mg and 34.0 ng/mg and 44.5 ng/mg and 168 µM and 221 µM and 105 µM and 85.1 µM
PFHxS lower than PFHxSA in female liver, on average ([2]; female rats, after oral PFHxSA): 2.9 fold
concentration at 24 h ([2]; rat, PFHxSA 3 mg/kg/day oral 5 days): 3100 ng/g and 7.74 µM
concentration at 24 h ([2]; rat, PFHxSA 10 mg/kg/day oral 5 days): 7940 ng/g and 19.9 µM
concentration at 24 h ([2]; rat, PFHxSA 30 mg/kg/day oral 5 days): 14500 ng/g and 36.2 µM
Male PFHxS liver concentrations versus females at equivalent dose levels ([2]; rat, in vivo): approximately ten-fold greater
Clhep (hepatic clearance) [3]: 0 ^2 L/h
